Data: US9751878B2, “Tetrahydronaphthyridine somatostatin receptor 5 antagonists” (Takeda Pharmaceutical Company Limited, priority 2013, dated 2017)

System: Male KK-Ay/Ta mice, a type 2 diabetes model
Test: Antidiabetic effect in mice (2)
Format: in vivo
Conditions: 0.03% food admixture with CE-2 diet for 2 weeks; n=7
Description: Antidiabetic Effect in Mice (2)
Male KK-Ay/Ta mice (Clea Japan Inc.), a type 2 diabetes model, were used in this study. At the age of 7-week old, blood samples were collected from tail vein at 8:00 am, and animals were divided into separate groups (n=7) based on glycated hemoglobin (GHb), plasma glucose, insulin, triglyceride levels and body weight. The Compound of Example 35 (0.03% (weight % of the compound in the food admixture)) was administered by food admixture with CE-2 diet (Clea Japan Inc.) for 2 weeks. After 2 weeks of treatment, GHb was determined by auto-analyzer HLC-723G8 (TOSOH, Japan).

## CCCc1nc2c(cc1C(=O)O)C(=O)N(C1CCN(Cc3cc(C4CC4)c(-c4ccc(F)cc4F)cc3OCC)CC1)CC2 [Example 35, 6-(1-((2-Cyclopropyl-5-ethoxy-2′,4′-difluorobiphenyl-4-yl)methyl)piperidin-4-yl)-5-oxo-2-propyl-5,6,7,8-tetrahydro-1,6-naphthyridine-3-carboxylic acid]
  Average of delta GHb (%): 0.60%
